Data from ChEMBL document CHEMBL1148857, “In vitro and in vivo profile of 5-[(4'-trifluoromethyl-biphenyl-2-carbonyl)-amino]-1H-indole-2-carboxylic acid benzylmethyl carbamoylamide (dirlotapide), a novel potent MTP inhibitor for obesity” (Bioorg Med Chem Lett, 2007).
Active and inactive are the calls of the source. The calls are words filed in the database; no cut-off is given here.

Tests used:
[1] = target: Microsomal triglyceride transfer protein large subunit (Homo sapiens, UniProt P55157); experiment: Inhibition of MTP assessed as inhibition of apoB secretion from human HepG2 cells; assay type: cell-based
Microsomal triglyceride transfer protein large subunit, sequence (P55157 whole entry): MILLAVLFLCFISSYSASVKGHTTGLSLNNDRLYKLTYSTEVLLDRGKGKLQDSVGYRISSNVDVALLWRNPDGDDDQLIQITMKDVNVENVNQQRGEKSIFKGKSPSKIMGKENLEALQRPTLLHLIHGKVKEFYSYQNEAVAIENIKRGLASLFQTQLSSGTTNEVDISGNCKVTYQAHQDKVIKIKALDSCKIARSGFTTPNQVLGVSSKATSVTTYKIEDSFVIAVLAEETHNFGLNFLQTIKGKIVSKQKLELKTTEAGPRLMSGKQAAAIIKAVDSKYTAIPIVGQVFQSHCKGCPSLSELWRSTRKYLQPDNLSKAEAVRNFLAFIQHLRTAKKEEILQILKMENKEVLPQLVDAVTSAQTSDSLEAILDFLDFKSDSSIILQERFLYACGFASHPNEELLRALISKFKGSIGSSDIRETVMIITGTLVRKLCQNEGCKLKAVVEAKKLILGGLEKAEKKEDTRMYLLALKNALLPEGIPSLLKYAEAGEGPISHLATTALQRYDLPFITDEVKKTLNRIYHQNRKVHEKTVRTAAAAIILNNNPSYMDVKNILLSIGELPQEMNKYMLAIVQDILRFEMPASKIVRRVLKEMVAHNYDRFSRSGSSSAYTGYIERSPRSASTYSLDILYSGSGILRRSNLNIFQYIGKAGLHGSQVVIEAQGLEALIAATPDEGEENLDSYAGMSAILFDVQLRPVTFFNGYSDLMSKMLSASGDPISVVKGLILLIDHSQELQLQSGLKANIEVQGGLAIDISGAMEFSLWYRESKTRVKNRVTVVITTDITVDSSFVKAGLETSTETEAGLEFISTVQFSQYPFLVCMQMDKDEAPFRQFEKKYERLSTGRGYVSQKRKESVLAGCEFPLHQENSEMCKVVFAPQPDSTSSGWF

[2] = Inhibition of MTP assessed as inhibition of apoB secretion from canine hepatocytes; assay type: cell-based; settings: Canis lupus familiaris, Hepatocyte
Homo sapiens [3] = species: Homo sapiens; experiment: Inhibition of kainate receptor at 1 uM
[4] = target: Histamine H3 receptor (Homo sapiens) (UniProt Q9Y5N1); experiment: Inhibition of histamine H3 receptor at 1 uM
Homo sapiens [5] = species: Homo sapiens; experiment: Inhibition of NMDA receptor at 1 uM
[6] = target: Adenosine receptor A1 (Homo sapiens) (UniProt P30542); experiment: Inhibition of adenosine A1 receptor at 1 uM
Adenosine receptor A1 (Homo sapiens), sequence (P30542 whole entry): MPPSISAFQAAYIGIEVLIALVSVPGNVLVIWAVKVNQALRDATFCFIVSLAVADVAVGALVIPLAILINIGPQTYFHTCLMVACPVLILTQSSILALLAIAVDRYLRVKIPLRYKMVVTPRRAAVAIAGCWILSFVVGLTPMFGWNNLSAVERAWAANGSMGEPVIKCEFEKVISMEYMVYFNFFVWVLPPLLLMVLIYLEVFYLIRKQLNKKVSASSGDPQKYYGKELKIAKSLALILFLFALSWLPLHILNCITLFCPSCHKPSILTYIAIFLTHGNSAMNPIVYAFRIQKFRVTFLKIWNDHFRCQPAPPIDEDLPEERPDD

[7] = target: Adenosine receptor A2a (Homo sapiens) (UniProt P29274); experiment: Inhibition of adenosine A2a receptor at 1 uM
Adenosine receptor A2a (Homo sapiens), sequence (P29274 whole entry): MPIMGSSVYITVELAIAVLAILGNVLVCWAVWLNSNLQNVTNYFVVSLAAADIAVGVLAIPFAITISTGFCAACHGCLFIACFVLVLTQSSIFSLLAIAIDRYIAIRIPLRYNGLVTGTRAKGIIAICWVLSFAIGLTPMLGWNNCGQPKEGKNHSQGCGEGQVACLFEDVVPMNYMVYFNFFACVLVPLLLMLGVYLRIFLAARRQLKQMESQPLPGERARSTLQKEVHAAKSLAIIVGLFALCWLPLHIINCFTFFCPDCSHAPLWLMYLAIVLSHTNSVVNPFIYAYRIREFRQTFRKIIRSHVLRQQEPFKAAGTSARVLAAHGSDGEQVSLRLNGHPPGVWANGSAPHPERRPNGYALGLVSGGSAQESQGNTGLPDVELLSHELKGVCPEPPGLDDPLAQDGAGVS

[8] = target: Beta-2 adrenergic receptor (Homo sapiens) (UniProt P07550); experiment: Inhibition of adrenergic b2 receptor at 1 uM
Homo sapiens [9] = species: Homo sapiens; experiment: Inhibition of central benzodiazepine receptor at 1 uM
[10] = target: B1 bradykinin receptor (Homo sapiens) (UniProt P46663); experiment: Inhibition of bradykinin B1 receptor at 1 uM
B1 bradykinin receptor (Homo sapiens), sequence (P46663 whole entry): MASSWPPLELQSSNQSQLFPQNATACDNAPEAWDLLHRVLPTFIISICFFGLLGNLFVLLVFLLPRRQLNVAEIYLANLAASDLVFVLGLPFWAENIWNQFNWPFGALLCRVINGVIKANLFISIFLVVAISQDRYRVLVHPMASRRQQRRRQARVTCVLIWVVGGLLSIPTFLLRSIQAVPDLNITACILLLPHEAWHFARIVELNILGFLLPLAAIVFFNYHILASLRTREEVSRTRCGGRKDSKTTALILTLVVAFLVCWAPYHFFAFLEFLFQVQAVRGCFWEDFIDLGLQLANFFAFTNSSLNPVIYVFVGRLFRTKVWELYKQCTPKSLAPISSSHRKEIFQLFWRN

[11] = target: B2 bradykinin receptor (Homo sapiens) (UniProt P30411); experiment: Inhibition of bradykinin B2 receptor at 1 uM
B2 bradykinin receptor (Homo sapiens), sequence (P30411 whole entry): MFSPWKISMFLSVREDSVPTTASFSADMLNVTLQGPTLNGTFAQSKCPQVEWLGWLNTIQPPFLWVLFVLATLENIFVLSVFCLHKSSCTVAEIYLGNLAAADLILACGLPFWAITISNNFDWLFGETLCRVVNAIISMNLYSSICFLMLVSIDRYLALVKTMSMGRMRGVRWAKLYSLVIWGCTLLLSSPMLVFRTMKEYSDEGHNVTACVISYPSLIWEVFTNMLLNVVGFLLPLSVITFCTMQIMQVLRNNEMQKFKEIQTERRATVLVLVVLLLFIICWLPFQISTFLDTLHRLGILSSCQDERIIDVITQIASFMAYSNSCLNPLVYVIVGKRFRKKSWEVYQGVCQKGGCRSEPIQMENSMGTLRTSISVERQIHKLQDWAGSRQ

[12] = target: D(1A) dopamine receptor (Homo sapiens) (UniProt P21728); experiment: Inhibition of dopamine D1 receptor at 1 uM
[13] = target: D(4) dopamine receptor (Homo sapiens) (UniProt P21917); experiment: Inhibition of dopamine D4 receptor at 1 uM
D(4) dopamine receptor (Homo sapiens), sequence (P21917 whole entry): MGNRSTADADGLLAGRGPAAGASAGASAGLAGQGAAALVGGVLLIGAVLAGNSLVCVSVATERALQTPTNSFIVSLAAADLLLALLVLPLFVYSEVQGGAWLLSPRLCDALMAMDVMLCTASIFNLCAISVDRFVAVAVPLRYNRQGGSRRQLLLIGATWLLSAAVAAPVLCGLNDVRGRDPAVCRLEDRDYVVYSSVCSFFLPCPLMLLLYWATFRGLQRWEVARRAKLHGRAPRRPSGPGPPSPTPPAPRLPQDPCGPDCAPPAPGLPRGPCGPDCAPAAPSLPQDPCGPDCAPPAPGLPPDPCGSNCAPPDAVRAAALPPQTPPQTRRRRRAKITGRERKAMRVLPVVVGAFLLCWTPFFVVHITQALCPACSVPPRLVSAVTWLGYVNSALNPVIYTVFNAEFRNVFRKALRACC

[14] = target: 5-hydroxytryptamine receptor 7 (Homo sapiens) (UniProt P34969); experiment: Inhibition of 5HT7 receptor at 1 uM
5-hydroxytryptamine receptor 7 (Homo sapiens), sequence (P34969 whole entry): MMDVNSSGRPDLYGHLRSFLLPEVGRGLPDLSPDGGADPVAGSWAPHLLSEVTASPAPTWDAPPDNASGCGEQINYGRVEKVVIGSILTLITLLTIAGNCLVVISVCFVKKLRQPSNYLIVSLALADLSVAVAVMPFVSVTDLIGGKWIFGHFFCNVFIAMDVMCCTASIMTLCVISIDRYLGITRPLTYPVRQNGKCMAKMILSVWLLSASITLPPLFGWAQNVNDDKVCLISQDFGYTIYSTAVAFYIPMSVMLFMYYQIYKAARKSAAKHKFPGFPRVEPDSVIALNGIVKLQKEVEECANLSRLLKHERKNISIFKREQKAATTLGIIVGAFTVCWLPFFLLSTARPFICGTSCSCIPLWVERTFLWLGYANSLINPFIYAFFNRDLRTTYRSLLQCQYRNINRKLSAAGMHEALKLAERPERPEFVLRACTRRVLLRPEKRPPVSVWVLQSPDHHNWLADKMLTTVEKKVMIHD

[15] = target: Melanocortin receptor 4 (Homo sapiens) (UniProt P32245); experiment: Inhibition of melanocortin MC4 receptor at 1 uM
[16] = target: Muscarinic acetylcholine receptor M2 (Homo sapiens) (UniProt P08172); experiment: Inhibition of muscarinic M2 receptor at 1 uM
Muscarinic acetylcholine receptor M2 (Homo sapiens), sequence (P08172 whole entry): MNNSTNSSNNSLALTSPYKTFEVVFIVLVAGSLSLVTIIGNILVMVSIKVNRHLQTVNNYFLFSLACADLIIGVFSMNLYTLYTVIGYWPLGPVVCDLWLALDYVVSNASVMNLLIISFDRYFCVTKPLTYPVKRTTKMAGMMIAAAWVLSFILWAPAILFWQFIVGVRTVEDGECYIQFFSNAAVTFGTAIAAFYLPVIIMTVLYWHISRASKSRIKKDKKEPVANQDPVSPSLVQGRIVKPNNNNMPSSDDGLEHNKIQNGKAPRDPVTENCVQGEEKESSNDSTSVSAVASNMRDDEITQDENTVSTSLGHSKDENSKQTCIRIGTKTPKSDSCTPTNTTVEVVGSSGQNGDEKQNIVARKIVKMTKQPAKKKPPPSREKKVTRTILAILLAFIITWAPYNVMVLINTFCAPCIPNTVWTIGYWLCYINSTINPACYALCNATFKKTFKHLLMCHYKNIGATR

[17] = target: Muscarinic acetylcholine receptor M3 (Homo sapiens) (UniProt P20309); experiment: Inhibition of muscarinic M3 receptor at 1 uM
Muscarinic acetylcholine receptor M3 (Homo sapiens), sequence (P20309 whole entry, looked up): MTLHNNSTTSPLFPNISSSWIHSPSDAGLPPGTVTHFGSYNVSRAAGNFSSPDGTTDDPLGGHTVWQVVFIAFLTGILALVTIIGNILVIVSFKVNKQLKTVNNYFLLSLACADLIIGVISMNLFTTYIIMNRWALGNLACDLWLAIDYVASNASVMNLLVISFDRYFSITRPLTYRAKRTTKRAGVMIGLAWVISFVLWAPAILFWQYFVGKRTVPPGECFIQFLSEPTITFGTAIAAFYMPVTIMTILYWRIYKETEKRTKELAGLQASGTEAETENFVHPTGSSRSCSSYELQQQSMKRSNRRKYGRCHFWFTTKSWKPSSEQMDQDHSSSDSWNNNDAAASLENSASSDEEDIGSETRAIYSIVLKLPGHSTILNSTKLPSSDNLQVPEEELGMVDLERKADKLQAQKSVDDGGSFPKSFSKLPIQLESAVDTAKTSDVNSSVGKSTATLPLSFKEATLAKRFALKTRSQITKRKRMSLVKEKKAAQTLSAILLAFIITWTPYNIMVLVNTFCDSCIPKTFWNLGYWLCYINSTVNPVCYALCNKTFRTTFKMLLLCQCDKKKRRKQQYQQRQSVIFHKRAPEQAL

[18] = target: Kappa-type opioid receptor (Homo sapiens) (UniProt P41145); experiment: Inhibition of kappa opioid receptor at 1 uM
[19] = target: Platelet-activating factor receptor (Homo sapiens) (UniProt P25105); experiment: Inhibition of platelet activating factor receptor at 1 uM
Platelet-activating factor receptor (Homo sapiens), sequence (P25105 whole entry): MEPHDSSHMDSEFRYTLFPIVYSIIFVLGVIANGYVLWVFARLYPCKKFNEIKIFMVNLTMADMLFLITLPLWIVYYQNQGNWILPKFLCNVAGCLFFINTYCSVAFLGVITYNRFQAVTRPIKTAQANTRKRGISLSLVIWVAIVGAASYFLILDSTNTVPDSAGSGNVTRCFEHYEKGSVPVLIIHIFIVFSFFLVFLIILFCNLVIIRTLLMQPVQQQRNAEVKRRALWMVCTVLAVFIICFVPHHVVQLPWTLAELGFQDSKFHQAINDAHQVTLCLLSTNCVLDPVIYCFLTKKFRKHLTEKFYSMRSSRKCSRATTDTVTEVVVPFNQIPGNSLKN

[20] = target: Glucocorticoid receptor (Homo sapiens) (UniProt P04150); experiment: Inhibition of glucocorticoid receptor at 1 uM
Homo sapiens [21] = species: Homo sapiens; experiment: Inhibition of IKr potassium channel at 1 uM
[22] = Permeability from apical to basolateral side of the Caco-2 cell membrane at 1 uM in presence of calcium; assay type: ADME, cell-based; settings: human
[23] = Intrinsic clearance in rat microsomes; assay type: ADME, Microsome
[24] = Intrinsic clearance in monkey microsomes; assay type: ADME, Macaca mulatta, Microsome; settings: rhesus monkey
CYP3A4 = experiment: Metabolic stability in human liver microsome at 0.5 uM in presence of 1 uM CYP3A4 inhibitor ketoconazole; assay type: ADME; settings: liver microsomes, with 1 uM ketoconazole (CYP3A4 inhibitor)
CYP2D6 = experiment: Metabolic stability in human liver microsome at 0.5 uM in presence of 5 uM CYP2D6 inhibitor quinidine; assay type: ADME; settings: liver microsomes, with 5 uM quinidine (CYP2D6 inhibitor)
Plasma = experiment: Percentage unbound ligand in monkey blood at 0.2 uM; assay type: ADME, cell-free, Macaca mulatta; settings: rhesus monkey
[25] = Ratio of drug level in blood to plasma in rat; assay type: ADME, cell-free; settings: blood and plasma, read-out: BPR
[26] = Ratio of drug level in blood to plasma in dog; assay type: ADME, cell-free, Canis lupus familiaris; settings: blood and plasma, read-out: BPR
[27] = Plasma clearance in rat at 0.3 mg/kg, iv; assay type: ADME, organism-based; set-up: dose 0.3 mg/kg, route intravenous
[28] = Plasma clearance in rat at 1 mg/kg, iv; assay type: ADME, organism-based; set-up: dose 1 mg/kg, route intravenous
[29] = Plasma clearance in Beagle dog at 1 mg/kg, iv; assay type: ADME, organism-based, Canis lupus familiaris; set-up: dose 1 mg/kg, route intravenous
[30] = Volume of distribution at steady state in rat at 0.3 mg/kg, iv; assay type: ADME, organism-based; set-up: dose 0.3 mg/kg, route intravenous; settings: in vivo, read-out: Vdss
[31] = Volume of distribution at steady state in rat at 1 mg/kg, iv; assay type: ADME, organism-based; set-up: dose 1 mg/kg, route intravenous; settings: in vivo, read-out: Vdss
[32] = Volume of distribution at steady state in Beagle dog at 0.5 mg/kg, iv; assay type: ADME, organism-based, Canis lupus familiaris; set-up: dose 0.5 mg/kg, route intravenous; settings: in vivo, read-out: Vdss
[33] = Half life in rat at 0.3 mg/kg, iv; assay type: ADME, organism-based; set-up: dose 0.3 mg/kg, route intravenous; settings: in vivo
[34] = Half life in rat at 1 mg/kg, iv; assay type: ADME, organism-based; set-up: dose 1 mg/kg, route intravenous; settings: in vivo
[35] = Half life in portal cannulated Beagle dog at 1 mg/kg, iv; assay type: ADME, organism-based, Canis lupus familiaris; set-up: dose 1 mg/kg, route intravenous; settings: in vivo
[36] = Half life in monkey at 0.5 mg/kg, iv; assay type: ADME, organism-based, Macaca mulatta; set-up: dose 0.5 mg/kg, route intravenous; settings: rhesus monkey, in vivo
[37] = AUC (0 to t) in rat at 0.3 mg/kg, iv; assay type: ADME, organism-based; set-up: dose 0.3 mg/kg, route intravenous; settings: plasma
[38] = AUC (0 to t) in Beagle dog at 1 mg/kg, iv; assay type: ADME, organism-based, Canis lupus familiaris; set-up: dose 1 mg/kg, route intravenous; settings: plasma
[39] = AUC (0 to infinity) in Beagle dog at 1 mg/kg, iv; assay type: ADME, organism-based, Canis lupus familiaris; set-up: time infinity, dose 1 mg/kg, route intravenous; settings: plasma
[40] = Half life in rat at 3 mg/kg, po; assay type: ADME, organism-based; set-up: dose 3 mg/kg, route oral; settings: in vivo
[41] = AUC (0 to infinity) in rat at 3 mg/kg, po; assay type: ADME, organism-based; set-up: time infinity, dose 3 mg/kg, route oral; settings: plasma
[42] = AUC (0 to infinity) in portal cannulated Beagle dog at 1 mg/kg, po; assay type: ADME, organism-based, Canis lupus familiaris; set-up: time infinity, dose 1 mg/kg, route oral; settings: plasma
[43] = Cmax in rat at 3 mg/kg, po; assay type: ADME, organism-based; set-up: dose 3 mg/kg, route oral; settings: in vivo
[44] = Cmax in rat at 30 mg/kg, po after 2.8 hrs; assay type: ADME, organism-based; set-up: dose 30 mg/kg, route oral; settings: in vivo
[45] = Cmax in rat at 300 mg/kg, po; assay type: ADME, organism-based; set-up: dose 300 mg/kg, route oral; settings: in vivo
[46] = Cmax in portal cannulated Beagle dog at 1 mg/kg, po; assay type: ADME, organism-based, Canis lupus familiaris; set-up: dose 1 mg/kg, route oral; settings: in vivo
[47] = Cmax in Beagle dog at 0.5 mg/kg, po; assay type: ADME, organism-based, Canis lupus familiaris; set-up: dose 0.5 mg/kg, route oral; settings: in vivo
[48] = Tmax in rat at 30 mg/kg, po; assay type: ADME, organism-based; set-up: dose 30 mg/kg, route oral; settings: in vivo
[49] = Tmax in portal cannulated Beagle dog at 1 mg/kg, po; assay type: ADME, organism-based, Canis lupus familiaris; set-up: dose 1 mg/kg, route oral; settings: in vivo
[50] = Tmax in Beagle dog at 0.5 mg/kg, po; assay type: ADME, organism-based, Canis lupus familiaris; set-up: dose 0.5 mg/kg, route oral; settings: in vivo
[51] = Tmax in Beagle dog at 5 mg/kg, po; assay type: ADME, organism-based, Canis lupus familiaris; set-up: dose 5 mg/kg, route oral; settings: in vivo
[52] = Bioavailability in rat at 3 mg/kg, po; assay type: ADME, organism-based; settings: in vivo
[53] = Bioavailability in rat at 30 mg/kg, po; assay type: ADME, organism-based; settings: in vivo
[54] = Bioavailability in rat at 300 mg/kg, po; assay type: ADME, organism-based; settings: in vivo
[55] = Bioavailability in portal cannulated Beagle dog at 1 mg/kg, po; assay type: ADME, organism-based, Canis lupus familiaris; settings: in vivo
[56] = Bioavailability in Beagle dog at 0.5 mg/kg, po; assay type: ADME, organism-based, Canis lupus familiaris; settings: in vivo
[57] = Bioavailability in Beagle dog at 5 mg/kg, po; assay type: ADME, organism-based, Canis lupus familiaris; settings: in vivo
Canis familiaris [58] = experiment: Effect on body weight in obese Beagle dog assessed as weight loss at 0.39 mg/kg, po after 3 months relative to control; assay type: functional, Canis lupus familiaris
Canis familiaris [59] = experiment: Decrease in cholesterol level in obese Beagle dog at 0.39 mg/kg, po after 3 months; assay type: functional, Canis lupus familiaris; set-up: scale not given: the % may be the effect or the level left
Cytochrome P450 2C9 = Cytochrome P450 2C9 (Homo sapiens, UniProt P11712); experiment: Inhibition of CYP2C9; assay type: ADME

CN(Cc1ccccc1)C(=O)[C@@H](NC(=O)c1cc2cc(NC(=O)c3ccccc3-c3ccc(C(F)(F)F)cc3)ccc2n1C)c1ccccc1 [DIRLOTAPIDE]
IC50 [1]: 2.9 nM | IC50 [2]: 1.5 nM | Activity (Homo sapiens [3]): inactive | Activity [4]: inactive | Activity (Homo sapiens [5]): inactive | Activity [6]: inactive | Activity [7]: inactive | Activity [8]: inactive | Activity (Homo sapiens [9]): inactive | Activity [10]: inactive | Activity [11]: inactive | Activity [12]: inactive | Activity [13]: inactive | Activity [14]: inactive | Activity [15]: inactive | Activity [16]: inactive | Activity [17]: inactive | Activity [18]: inactive | Activity [19]: inactive | Activity [20]: inactive | Activity (Homo sapiens [21]): inactive | Papp A→B at 1 µM [22]: 0.6 ×10⁻⁶ cm/s | CLint scaled [23]: 645 mL/min/kg | CLint scaled [24]: 835 mL/min/kg | half-life at 0.5 µM (CYP3A4): 6.15 h | half-life at 0.5 µM (CYP2D6): 0.6 h | Fu (Plasma): 0.026% | blood plasma ratio [25]: 0.64 | blood plasma ratio [26]: 0.54 | clearance [27]: 92 mL/min/kg | clearance [28]: 37 mL/min/kg | clearance [29]: 4.7 mL/min/kg | Vd [30]: 11 L/kg | Vd [31]: 8 L/kg | Vd [32]: 1 L/kg | half-life [33]: 2 h | half-life [34]: 5.8 h | half-life [35]: 7.8 h | half-life [36]: 6.7 h | AUC(0-t) [37]: 51 ng·h/mL | AUC(0-t) [38]: 3260 ng·h/mL | AUC(0-inf) [39]: 3610 ng·h/mL | half-life [40]: 6.3 h | AUC(0-inf) [41]: 40.7 ng·h/mL | AUC(0-inf) [42]: 289 ng·h/mL | Cmax [43]: 4.7 ng/mL | Cmax [44]: 21 ng/mL | Cmax [45]: 27 ng/mL | Cmax [46]: 26.8 ng/mL | Cmax [47]: 31.1 ng/mL | Tmax [48]: 2.8 h | Tmax [49]: 6.3 h | Tmax [50]: 3 h | Tmax [51]: 3 h | bioavailability [52]: 2.6% | bioavailability [53]: 2.3% | bioavailability [54]: 1% | bioavailability [55]: 10.6% | bioavailability [56]: 43% | bioavailability [57]: 12% | Activity (Canis familiaris [58]): 18.8% | Activity (Canis familiaris [59]): 51% | IC50 (Cytochrome P450 2C9): > 30000 nM
